According to PMC6001238, “Iterative Chemical Engineering of Vancomycin Leads to Novel Vancomycin Analogs With a High in Vitro Therapeutic Index” (Frontiers in Microbiology, 2018):
pIC50: −log10 of the molar value. ≈ marks a conversion by molar mass, not a printed value. Read-outs that look alike come from different tables or passages of the source.

Experiments:
[1] = tested on: E. faecalis VRE 29; assay: MIC, broth microdilution, vancomycin-resistant E. faecalis VRE 29 (VanA); format: cell-based, Enterococcus faecalis; details: for MIC: Enterococcus faecalis VRE 29 (vancomycin-resistant), read-out: MIC; for MIC-fold improvement vs. vancomycin: VRE 29, ratio of MIC of vancomycin and MIC of analogue
Method in brief: (§1)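 Susceptibility was scored by broth microdilution (CLSI). In one instance each vancomycin analog or control antibiotic was tested in the presence of vancomycin, 10 μM final, and ultrapure water plus non-inoculated broth were included as controls.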

[2] = tested on: S. aureus VISA/HIP5827; assay: MIC, broth microdilution, vancomycin-intermediate S. aureus VISA HIP5827; format: cell-based, Staphylococcus aureus; details: for MIC: Staphylococcus aureus VISA/HIP5827, read-out: MIC; for MIC-fold improvement vs. vancomycin: VISA/HIP5827, ratio of MIC of vancomycin and MIC of analogue
Method in brief: as §1

[3] = tested on: E. coli XL-1 blue MRF'; assay: MIC, broth microdilution, E. coli XL-1 blue MRF'; format: cell-based, Escherichia coli; details: E. coli XL-1 blue MRF'; for MICvanc/MICi: ratio of MIC of vancomycin and MIC of analogue
Procedure: (§2) The minimum inhibitory concentration (MIC) was determined using the broth microdilution method according to the antimicrobial susceptibility testing standards of the clinical and laboratory standards institute ([Clinical and Laboratory Standards Institute [CLSI], 2012]). Ultrapure water and non-inoculated broth were used as controls. In one case, a final concentration of 10 μM vancomycin was included with the vancomycin analog or control antibiotic.

[4] = tested on: human cervix carcinoma (HeLa) cells; assay: Cytostatic activity, HeLa cell proliferation; format: cell-based; details: mean ± SD of three experiments; highest concentration tested 250 µM; 4 days; read-out: Toxicity (IC50) HeLa
Method in brief: (§3)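 Readout: Coulter cell number after drug exposure at 37°C. Durations differ by line (L1210 2 days; CEM 3 days; HeLa 4 days). Stock suspension 300,000–500,000 cells/mL, diluted by mixing with compound. Endpoint: IC50 vs negative control.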

[5] = tested on: MRSA KS6; assay: MIC, broth microdilution, MRSA KS6; format: cell-based, Staphylococcus aureus; details: for MIC-fold improvement vs. vancomycin: MRSA KS6, ratio of MIC of vancomycin and MIC of analogue; for MIC: Staphylococcus aureus MRSA KS6, read-out: MIC
Method in brief: as §1

[6] = tested on: E. faecalis VSE 1; assay: MIC, broth microdilution, vancomycin-sensitive E. faecalis (VSE 1); format: cell-based, Enterococcus faecalis; details: for MICvanc/MICi / MIC-fold improvement vs. vancomycin: ratio of MIC of vancomycin and MIC of analogue; for MIC: read-out: MIC; for MIC-fold improvement vs. vancomycin: VSE 1
Method in brief: as §1

[7] = tested on: E. faecalis VRE 53; assay: MIC, broth microdilution, vancomycin-resistant E. faecalis VRE 53 (VanA); format: cell-based, Enterococcus faecalis; details: for MICvanc/MICi / MIC-fold improvement vs. vancomycin: ratio of MIC of vancomycin and MIC of analogue; for MIC: read-out: MIC; for MIC-fold improvement vs. vancomycin: VRE 53
Method in brief: as §1

[8] = tested on: L1210, CEM and HeLa cell lines; assay: Cytostatic activity, average or summary over L1210, CEM and HeLa; format: cell-based
Method in brief: as §3

[9] = tested on: MRSA KS89; assay: MIC, broth microdilution, MRSA KS89; format: cell-based, Staphylococcus aureus; details: for MIC-fold improvement vs. vancomycin: MRSA KS8, ratio of MIC of vancomycin and MIC of analogue; for MIC: Staphylococcus aureus MRSA KS8, read-out: MIC
Method in brief: as §1

[10] = tested on: E. faecalis VRE 6; assay: MIC, broth microdilution, vancomycin-resistant E. faecalis VRE 6 (VanA); format: cell-based, Enterococcus faecalis; details: for MICvanc/MICi / MIC-fold improvement vs. vancomycin: ratio of MIC of vancomycin and MIC of analogue; for MIC: read-out: MIC; for MIC-fold improvement vs. vancomycin: VRE 6
Method in brief: as §1

[11] = tested on: human T-lymphocyte (CEM) cells; assay: Cytostatic activity, CEM cell proliferation; format: cell-based; details: mean ± SD of three experiments; highest concentration tested 250 µM; 3 days; read-out: Toxicity (IC50) CEM
Method in brief: as §3

[12] = tested on: MRSA KS2; assay: MIC, broth microdilution, MRSA KS2; format: cell-based, Staphylococcus aureus; details: for MIC: Staphylococcus aureus MRSA KS2, read-out: MIC
Method in brief: as §1

[13] = tested on: E. faecalis VRE 37; assay: MIC, broth microdilution, vancomycin-resistant E. faecalis VRE 37 (VanA); format: cell-based, Enterococcus faecalis; details: for MIC: Enterococcus faecalis VRE 37 (vancomycin-resistant), read-out: MIC; for MIC-fold improvement vs. vancomycin: VRE 37, ratio of MIC of vancomycin and MIC of analogue
Method in brief: as §1

[14] = tested on: S. aureus VSSA (ATCC 6538); assay: MIC, broth microdilution, vancomycin-sensitive S. aureus (VSSA/MSSA, ATCC 6538); format: cell-based, Staphylococcus aureus; details: for MIC: Staphylococcus aureus VSSA, read-out: MIC
Method in brief: as §1

[15] = tested on: S. aureus VRSA; assay: MIC, broth microdilution, vancomycin-resistant S. aureus (VRSA); format: cell-based, Staphylococcus aureus; details: for MIC: Staphylococcus aureus VRSA, read-out: MIC; for MIC-fold improvement vs. vancomycin: VRSA, ratio of MIC of vancomycin and MIC of analogue
Method in brief: as §1

[16] = tested on: MRSA KS1; assay: MIC, broth microdilution, MRSA KS1; format: cell-based, Staphylococcus aureus; details: for MIC: Staphylococcus aureus MRSA KS1, read-out: MIC
Method in brief: as §1

[17] = tested on: Murine leukemia (L1210) cells; assay: Cytostatic activity, L1210 cell proliferation; format: cell-based; details: mean ± SD of three experiments; highest concentration tested 250 µM; 2 days; read-out: Toxicity (IC50) L1210
Method in brief: as §3

[18] = tested on: B. subtilis PSB3; assay: MIC, broth microdilution, B. subtilis PSB3; format: cell-based, Bacillus subtilis; details: for MICvanc/MICi: ratio of MIC of vancomycin and MIC of analogue
Procedure: as §2

[19] = Enterococcus faecalis VSE 1 (vancomycin-sensitive)
[20] = Enterococcus faecalis VRE 53 (vancomycin-resistant)
[21] = average of L1210, CEM and HeLa, read-out: Toxicity (IC50) Average
[22] = summary over the three cell lines, read-out: IC50 (L1210, CEM, HeLa), depending on the cell line used
[23] = Enterococcus faecalis VRE 6 (vancomycin-resistant)

Row | SMILES | MIC [1] | MIC-fold improvement vs. vancomycin [1] | MIC [2] | MIC-fold improvement vs. vancomycin [2] | MIC [3] | MICvanc/MICi [3] | pIC50 [4] | MIC-fold improvement vs. vancomycin [5] | MIC [5] | MICvanc/MICi ([6]; E. faecalis VSE 1) | MIC ([6]; E. faecalis VSE 1) | MIC [6, 19] | MIC-fold improvement vs. vancomycin [6] | MICvanc/MICi ([7]; E. faecalis VRE 53) | MIC ([7]; E. faecalis VRE 53) | MIC [7, 20] | MIC-fold improvement vs. vancomycin [7] | pIC50 [8, 21] | pIC50 [8, 22] | MIC-fold improvement vs. vancomycin [9] | also measured
1 | C#CCCC(=O)NCCCNC(=O)C1NC(=O)C2NC(=O)C(NC(=O)C3NC(=O)C(CC(N)=O)NC(=O)C(NC(=O)C(CC(C)C)NC)C(O)c4ccc(c(Cl)c4)Oc4cc3cc(c4OC3OC(CO)C(O)C(O)C3OC3CC(C)(N)C(O)C(C)O3)Oc3ccc(cc3Cl)C2O)c2ccc(O)c(c2)-c2c(O)cc(O)cc21 (stereo not drawn) [Vanc-B] | 100 µM (≈ 159 µg/mL) | 4 | 3.13 µM (≈ 4.96 µg/mL) | 2 | 25 µM (≈ 39.6 µg/mL) | 4 | < 3.60 | 0.5 | 1.56 µM (≈ 2.47 µg/mL) | 2 | 0.78 µM (≈ 1.24 µg/mL) | 0.78 µM (≈ 1.24 µg/mL) | 2 | 32 | 12.5 µM (≈ 19.8 µg/mL) | 12.5 µM (≈ 19.8 µg/mL) | 32 | < 3.60 | < 3.60 | 1 | MIC [9]: 1.56 µM (≈ 2.47 µg/mL); MICvanc/MICi ([10]; E. faecalis VRE 6): 4; MIC ([10]; E. faecalis VRE 6): 50 µM (≈ 79.3 µg/mL); MIC [10, 23]: 50 µM (≈ 79.3 µg/mL); MIC-fold improvement vs. vancomycin [10]: 4; pIC50 [11]: < 3.60; MIC [12]: 0.78 µM (≈ 1.24 µg/mL); MIC [13]: 100 µM (≈ 159 µg/mL); MIC-fold improvement vs. vancomycin [13]: 8; MIC [14]: 0.78 µM (≈ 1.24 µg/mL); MIC [15]: 12.5 µM (≈ 19.8 µg/mL); MIC-fold improvement vs. vancomycin [15]: 8; MIC [16]: 0.78 µM (≈ 1.24 µg/mL); pIC50 [17]: < 3.60; MIC [18]: 0.20 µM (≈ 0.317 µg/mL); MICvanc/MICi [18]: 2
2 | C#Cc1ccc(/C=C/C(=O)NCCNC(=O)[C@H]2NC(=O)[C@H]3NC(=O)[C@H](NC(=O)[C@@H]4NC(=O)[C@H](CC(N)=O)NC(=O)[C@H](NC(=O)[C@@H](CC(C)C)NC)[C@H](O)c5ccc(c(Cl)c5)Oc5cc4cc(c5O[C@@H]4O[C@H](CO)[C@@H](O)[C@H](O)[C@H]4O[C@H]4C[C@](C)(N)[C@H](O)[C@H](C)O4)Oc4ccc(cc4Cl)[C@H]3O)c3ccc(O)c(c3)-c3c(O)cc(O)cc32)cc1 [Vanc-Q] | 25 µM (≈ 41.1 µg/mL) | 16 | 1.56 µM (≈ 2.57 µg/mL) | 4 | 12.5 µM (≈ 20.6 µg/mL) | 8 | < 3.60 | 1 | 0.78 µM (≈ 1.28 µg/mL) | 16 | 0.10 µM (≈ 0.165 µg/mL) | 0.10 µM (≈ 0.165 µg/mL) | 16 | 64 | 6.25 µM (≈ 10.3 µg/mL) | 6.25 µM (≈ 10.3 µg/mL) | 64 | < 3.60 | < 3.60 | 1 | MIC [9]: 0.78 µM (≈ 1.28 µg/mL); MICvanc/MICi ([10]; E. faecalis VRE 6): 32; MIC ([10]; E. faecalis VRE 6): 6.25 µM (≈ 10.3 µg/mL); MIC [10, 23]: 6.25 µM (≈ 10.3 µg/mL); MIC-fold improvement vs. vancomycin [10]: 32; pIC50 [11]: < 3.60; MIC-fold improvement vs. vancomycin ([12]; MRSA KS2, ratio of MIC of vancomycin and MIC of analogue): 0.5; MIC [12]: 1.56 µM (≈ 2.57 µg/mL); MIC [13]: 50 µM (≈ 82.3 µg/mL); MIC-fold improvement vs. vancomycin [13]: 16; MIC [14]: 0.20 µM (≈ 0.329 µg/mL); MIC-fold improvement vs. vancomycin ([14]; VSSA, ratio of MIC of vancomycin and MIC of analogue): 4; MIC [15]: 12.5 µM (≈ 20.6 µg/mL); MIC-fold improvement vs. vancomycin [15]: 8; MIC-fold improvement vs. vancomycin ([16]; MRSA KS1, ratio of MIC of vancomycin and MIC of analogue): 2; MIC [16]: 0.39 µM (≈ 0.642 µg/mL); pIC50 [17]: < 3.60; MIC [18]: 0.39 µM (≈ 0.642 µg/mL); MICvanc/MICi [18]: 1
